Here are results for 19 molecules from ChEMBL document CHEMBL1157811, “Synthesis, anticoagulant and PIVKA-II induced by new 4-hydroxycoumarin derivatives” (Bioorg Med Chem, 2010).

Active and inactive are the calls of the source. No cut-off for these calls is given here.

Data set [1] relates to Mus musculus. Put plainly: Ex vivo anticoagulant activity in albino mouse assessed as prothrombin time at 150 mg/kg, po administered daily for 3 successive days measured after 24 hrs of last dose. The format is functional.
The test system of data set [2] is Mus musculus. Put plainly: Ex vivo anticoagulant activity in albino mouse assessed as blood clotting time at 150 mg/kg, po administered daily for 3 successive days measured after 24 hrs of last dose. In kind it is functional.
Data set [3] deals with HepG2. Put plainly: Anticoagulant activity in human HepG2 cells assessed as accumulation of des-gamma carboxyprothrombin at 3.33 uM after 24 hrs by ELISA relative to warfarin. In kind it is functional. On the technique in general: An ELISA detects its analyte on a solid surface through an enzyme-linked reagent.
Data set [4] concerns HepG2. Nature of the data set: Anticoagulant activity in human HepG2 cells assessed as accumulation of des-gamma carboxyprothrombin at 1.1 uM after 24 hrs by ELISA relative to warfarin. In kind it is functional, cell-based.
Data set [5] relates to HepG2. Put plainly: Anticoagulant activity in human HepG2 cells assessed as accumulation of des-gamma carboxyprothrombin at 3.3 uM after 24 hrs by ELISA. In kind it is functional, cell-based.
Data set [6] concerns HepG2. Nature of the data set: Anticoagulant activity in human HepG2 cells assessed as accumulation of des-gamma carboxyprothrombin at 30 uM after 24 hrs by ELISA. In kind it is functional, cell-based.
Data set [7] has as its system HepG2. Put plainly: Anticoagulant activity in human HepG2 cells assessed as accumulation of des-gamma carboxyprothrombin at 30 uM after 24 hrs by ELISA relative to warfarin. The format is functional.
For data set [8], the system named is HepG2. Put plainly: Anticoagulant activity in human HepG2 cells assessed as accumulation of des-gamma carboxyprothrombin at 10 uM after 24 hrs by ELISA relative to warfarin. In kind it is functional.
Data set [9] can be described thus: Toxicity in po dosed albino mouse assessed as mortality administered daily for 3 successive days. As to conditions: in vivo. In kind it is organism-based.
For data set [10], the system named is HepG2. Put plainly: Anticoagulant activity in human HepG2 cells assessed as accumulation of des-gamma carboxyprothrombin after 24 hrs by ELISA. The format is functional, cell-based.

On to `CC(=O)N1N=C(c2c(O)c3ccccc3oc2=O)CC1c1cccnc1` (stereo not given), for which the Time in the data set with Mus musculus [1] is 3.373 min; with Mus musculus [2], 20.83 s. The Activity in the data set with HepG2 [3] was 11.45%. Besides, the outcome in the data set with HepG2 [4] was inactive.

As to `COc1cc(C2CC(c3c(O)c4ccccc4oc3=O)=NN2c2ccccc2)cc(OC)c1OC` (stereo not given), the outcome with HepG2 [5] was inactive.

With `COc1ccc(C2CC(c3c(O)c4ccccc4oc3=O)=NN2)cc1` (stereo not given), in the data set with HepG2 [6], the outcome was Active. Further, the values for the Activity in the data set with HepG2 [7] and in the data set on HepG2 [8] were 17.3% and 17.76%, respectively.

With `COc1ccc(C2CC(c3c(O)c4ccccc4oc3=O)=NN2C(N)=S)cc1` (stereo not given), in the data set with HepG2 [6], the result was Active. Also, the Activity in the data set with HepG2 [7] came to 18.1%; with HepG2 [8], 13.7%.

Turning to `O=c1oc2ccccc2c(O)c1C1=NC(S)=NC(c2cccnc2)C1` (stereo not given), the Activity in the data set on HepG2 [7] is 8%. Besides, the result in the data set on HepG2 [8] was inactive.

`COc1cc(C2CC(c3c(O)c4ccccc4oc3=O)=NN2C(=S)Nc2ccccc2)cc(OC)c1OC` (stereo not given): the outcome with HepG2 [5] was inactive.

As for `COc1cc(C2CC(c3c(O)c4ccccc4oc3=O)=NN2)cc(OC)c1OC` (stereo not given), the outcome in the data set with HepG2 [6] was inactive.

As for `N#Cc1c(-c2ccco2)cc(-c2c(O)c3ccccc3oc2=O)[nH]c1=O`, the Activity is listed as 8.8% in the data set with HepG2 [7] and 10% with HepG2 [8].

Usually LD50 stands for the dose expected to kill half of the subjects tested. In the case of `O=c1oc2ccccc2c(O)c1C1=NN(c2ccccc2)C(c2cccnc2)C1` (stereo not given), the values for the Time with Mus musculus [1] and in the data set with Mus musculus [2] were 0.827 min and 22.5 s, respectively. Besides, the Activity came out at 8.7% in the data set on HepG2 [7] and 8.4% in the data set on HepG2 [8]. Also, the LD50 at 3 days in data set [9] is 1790 mg/kg.

In the case of `COc1cc(C2CC(c3c(O)c4ccccc4oc3=O)=NC(S)=N2)cc(OC)c1OC` (stereo not given), in the data set on HepG2 [6], the outcome was Active. For the same molecule, the Time in the data set with Mus musculus [1] turned out to be 0.173 min; in the data set with Mus musculus [2], 15.83 s. The results for the Activity in the data set with HepG2 [7] and in the data set on HepG2 [8] were 13% and 5.2%, respectively.

On to `COc1cc(-c2cc(-c3c(O)c4ccccc4oc3=O)nc(N)c2C#N)cc(OC)c1OC`, for which the Time amounted to 0.193 min in the data set on Mus musculus [1] and 9.5 s in the data set with Mus musculus [2].

Turning to `O=c1oc2ccccc2c(O)c1C1=NN(C(=S)Nc2ccccc2)C(c2cccnc2)C1` (stereo not given), in the data set with HepG2 [6], the result was Active. The Time is reported as 3.505 min with Mus musculus [1] and 12.17 s in the data set on Mus musculus [2]. In addition, the Activity in the data set on HepG2 [7] stood at 19.4%; in the data set on HepG2 [8] it was 19.3%.

`O=c1oc2ccccc2c(O)c1C1=NNC(c2cccnc2)C1` (stereo not given): the result in the data set on HepG2 [6] was inactive. For the same molecule, the Time with Mus musculus [1] came to 0.53 min; in the data set with Mus musculus [2], 17.67 s.

In the case of `N#Cc1c(-c2cccnc2)cc(-c2c(O)c3ccccc3oc2=O)[nH]c1=O`, the result in the data set on HepG2 [3] was inactive. Besides, the Activity with HepG2 [8] is reported as 10%.

`CC(=O)CC(c1ccccc1)c1c(O)c2ccccc2oc1=O` (stereo not given) [WARFARIN]: the Time in the data set with Mus musculus [1] was found to be 4.445 min; in the data set on Mus musculus [2] it was 18.17 s. The Activity entry with HepG2 [10] was “Dose-dependent effect”. Moreover, the 50% lethal dose (LD50) at 3 days in [9] came to 760 mg/kg.

For the molecule `COc1cc(-c2cc(-c3c(O)c4ccccc4oc3=O)[nH]c(=O)c2C#N)cc(OC)c1OC`, the outcome in the data set with HepG2 [6] was inactive. In addition, the Time is reported as 0.192 min in the data set with Mus musculus [1] and 15.67 s with Mus musculus [2].

Consider `COc1ccc(C2CC(c3c(O)c4ccccc4oc3=O)=NN2C(=S)Nc2ccccc2)cc1` (stereo not given), for which, in the data set on HepG2 [6], the result was inactive.

As to `NC(=S)N1N=C(c2c(O)c3ccccc3oc2=O)CC1c1cccnc1` (stereo not given), the result with HepG2 [6] was Active. The Time with Mus musculus [1] is on record as 4.017 min; in the data set with Mus musculus [2], 16.67 s. Besides, the Activity is 11.2% in the data set with HepG2 [7] and 9.1% with HepG2 [8].

As to `N#Cc1c(-c2ccco2)cc(-c2c(O)c3ccccc3oc2=O)nc1N`, the outcome with HepG2 [6] was Active. Also, the Activity amounted to 10% with HepG2 [7] and 7.4% in the data set with HepG2 [8].
